Measurements as given in patent US20200308103A1, “NOVEL CRYSTALS OF HYDROXAMIC ACID DERIVATIVE, PRODUCTION METHOD THEREOF, AND PHARMACEUTICAL COMPOSITION” (FUJIFILM Toyama Chemical Co., Ltd., priority 2016, published 2020).
Where two headings read alike, the source gives them in different places.

Assays:
[1] = Solubility in aqueous sulfobutyl ether-β-cyclodextrin (SBEβCD) solution; type: physicochemical; conditions: for solubility: aqueous with cosolvent or surfactant or cyclodextrin, thermodynamic from solid, read-out: Solubility (dissolved / not dissolved)
Experimental: 32.4 mL of water for injection was added to 6.00 g of sulfobutyl ether-β-cyclodextrin (CYCLOLAB Cyclodextrin Research & Development Laboratory Ltd.) (hereinafter also referred to as “SBEβCD”), and the solution was then stirred at 25° C. for 10 minutes. After the dissolution of the substance had been confirmed by visual observation, the mixed solution was cooled to 10° C. Thereafter, 0.50 g of type I crystal or type II crystal was added to the reaction mixture, and the obtained solution was then heated stepwise, until the crystal was dissolved in the solution.
32.5 mL of water for injection was added to 6.00 g of SBEβCD, and the solution was then stirred at 25° C. for 10 minutes. After the dissolution of the substance had been confirmed by visual observation, the mixed solution was cooled to 0° C., 5° C. or 10° C. Thereafter, 0.48 g of type 111 crystal was added to the reaction mixture, and the obtained solution was then stirred, until the crystal was dissolved in the solution.

[2] = Stability (1): light irradiation, HPLC purity; type: physicochemical; conditions: for Stability against light: 1,200,000 lx·hr, conclusion in words
Experimental: Test Example 5 Stability (1) The type I crystals, the type II crystals, and the type Ill crystals were placed in a light stability tester and irradiated with light (1,200,000 lx·hr) (light source: D65 lamp (FLR20S-D-EDL-D65/M)).
The purity of the crystals of each type was measured by HPLC.
(§1) Measurement wavelength: 254 nm
Column: Ascentis Express C18 (Sigma-Aldrich Japan), particle diameter: 5 μm, inner diameter 4.6 mm×length 150 mm
(§2) Column temperature: 40° C.
(§3) Mobile phase A: water/acetic acid=1000/1 solution
(§4) Mobile phase B: acetonitrile/acetic acid=1000/1 solution

[3] = Hygroscopic properties (storage, weight change); type: physicochemical
Experimental: The type I crystals and the type III crystals were stored under conditions of 25° C. and a relative humidity of 97%.
These crystals were sampled over time, and the weights of the crystals were measured to determine the rates of change in weight.
Rate of change in weight (%)=((B−A)/A)×100
A: Weight of the crystals before the start of the test
B: Weight of the crystals after the start of the test

[4] = Physical stability (2): type I + type II crystals suspended in acetonitrile, crystal form by powder X-ray diffraction; type: physicochemical; conditions: acetonitrile (nonaqueous conditions), conclusion in words
Experimental: The type I crystals and the type 11 crystals were mixed, suspended in acetonitrile, and stirred at 5, 25, or 40° C.
(§5) The mixture was sampled over time, and the crystal form was measured by powder X-ray diffraction.

[5] = type: physicochemical
Experimental: The type I crystals and the type III crystals were mixed, suspended in acetonitrile, and stirred at 5, 25, or 40° C.
as §5

[6] = Stability (2): storage at 60° C. and relative humidity 75%, HPLC purity; type: physicochemical; conditions: relative humidity 75%; for Stability: conclusion in words
Experimental: The type I crystals, the type II crystals, and the type III crystals were stored under conditions of 60° C. and a relative humidity of 75%.
These crystals were sampled over time, and their purity was measured by HPLC.
as §1
Column: Ascentis Express C18, particle size: 5 μm, 4.6 mm in inside diameter×150 mm in length
as §2, §3, §4

[7] = type: physicochemical; remark: listed apart in the source
Experimental: The type I crystals and the type II crystals were mixed, suspended in a 40% aqueous acetonitrile solution, and stirred at 25° C.
as §5

[8] = target: uridyldiphospho-3-O-acyl-N-acetylglucosamine deacetylase (LpxC) (Pseudomonas aeruginosa, UniProt P47205); conditions: known from Patent Literature 1; cited from earlier work
Chain of uridyldiphospho-3-O-acyl-N-acetylglucosamine deacetylase (LpxC) (P47205 whole entry): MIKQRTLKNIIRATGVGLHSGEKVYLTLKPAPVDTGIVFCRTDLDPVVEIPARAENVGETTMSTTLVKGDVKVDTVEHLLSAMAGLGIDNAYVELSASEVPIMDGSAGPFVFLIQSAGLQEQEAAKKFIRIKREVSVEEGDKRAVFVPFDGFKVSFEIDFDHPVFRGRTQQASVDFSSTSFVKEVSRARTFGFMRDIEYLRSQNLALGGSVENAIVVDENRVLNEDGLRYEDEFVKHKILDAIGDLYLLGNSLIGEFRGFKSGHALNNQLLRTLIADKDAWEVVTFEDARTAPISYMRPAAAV

[9] = after light irradiation 1,200,000 lx·hr, D65 lamp
[10] = light stability test, before start of test
[11] = 25° C., relative humidity 97%, 4 weeks

| Structure (SMILES) | Temperature at which the crystal was dissolved in the solution [1] [°C] | Stability against light [2] | HPLC purity (%) [2, 9] [%] | HPLC purity (%) [2, 10] [%] | Rate of change in weight (%) [3, 11] [%] | Physical stability / crystal transformation [4] | Physical stability / crystal transformation [5] | HPLC purity (%) ([6]; 4 weeks) | HPLC purity (%) ([6]; 7 weeks) | HPLC purity (%) ([6]; 13 weeks) | HPLC purity (%) ([6]; before start of test) | Physical stability / crystal transformation [7] | Stability [6] | further results |
| --- | --- | --- | --- | --- | --- | --- | --- | --- | --- | --- | --- | --- | --- | --- |
| CNC(=O)[C@@](C)(C(=O)NO)N(C)C(=O)c1ccc(C#Cc2ccc([C@H](O)CO)cc2)cc1 [Type I crystals, (2S)-2-((4-((4-((1S)-1,2-dihydroxyethyl)phenyl)ethynyl)benzoyl)(methyl)amino)-N-hydroxy-N′,2-dimethylmalonamide, reference compound] | 25 | reduced | 96.1 | 99.2 | 0.80 | transformed to the type III crystals | transformed to the type III crystals | 98.7 | 97.6 | 90.4 | 99.2 | transformed to the type II crystals | – | solubility ([1]; 10 °C, 10 ° C.): < 15.4 mg/mL; solubility ([1]; 15 °C, 15 ° C.): < 15.4 mg/mL; solubility ([1]; 20 °C, 20 ° C.): < 15.4 mg/mL; solubility ([1]; 25 °C, 25 ° C.): > 15.4 mg/mL; Rate of change in weight (%) ([3]; 25° C., relative humidity 97%, 13 weeks): 1.09%; Rate of change in weight (%) ([3]; 25° C., relative humidity 97%, 13 weeks, listed as type I crystals): ≥ 1%; HPLC purity (%) ([6]; 13 weeks, listed as type I crystals): approximately 90% |
| CNC(=O)[C@@](C)(C(=O)NO)N(C)C(=O)c1ccc(C#Cc2ccc([C@H](O)CO)cc2)cc1 [Type II crystals, (2S)-2-((4-((4-((1S)-1,2-dihydroxyethyl)phenyl)ethynyl)benzoyl)(methyl)amino)-N-hydroxy-N′,2-dimethylmalonamide] | 25 | – | 98.5 | 99.1 | – | transformed to the type III crystals | – | 98.7 | 97.7 | 91.2 | 99.1 | more stable than the type I crystals | more stable than the type I crystals | Stability against light ([2]; listed as type 11 crystals): more stable against light than the type I crystals; HPLC purity (%) ([6]; 13 weeks, listed as type II crystals): approximately 91% |
| CNC(=O)[C@@](C)(C(=O)NO)N(C)C(=O)c1ccc(C#Cc2ccc([C@H](O)CO)cc2)cc1 [Type III crystals, (2S)-2-((4-((4-((1S)-1,2-dihydroxyethyl)phenyl)ethynyl)benzoyl)(methyl)amino)-N-hydroxy-N′,2-dimethylmalonamide] | ≤ 0 | more stable against light than the type I crystals | 99.4 | 99.5 | 0.10 | more stable than the type I crystals and the type II crystals | more stable than the type I crystals | 99.3 | 98.6 | 94.8 | 99.5 | – | more stable than the type I crystals | solubility ([1]; 0 °C, 0 ° C.): > 14.8 mg/mL; solubility ([1]; 5 °C, 5 ° C.): > 14.8 mg/mL; Rate of change in weight (%) ([3]; 25° C., relative humidity 97%, 16 weeks): 0.03%; Rate of change in weight ([3]; 25° C., relative humidity 97%, time not stated): ≤ 0.1%; Hygroscopic properties ([3]; conclusion in words): low; HPLC purity (%) ([6]; 13 weeks, listed as type III crystals): approximately 95%; Stability ([6]; listed as type Ill crystals): most stable |
| CNC(=O)[C@@](C)(C(=O)NO)N(C)C(=O)c1ccc(C#Cc2ccc([C@H](O)CO)cc2)cc1 [compound A, (2S)-2-((4-((4-((1S)-1,2-dihydroxyethyl)phenyl)ethynyl)benzoyl)(methyl)amino)-N-hydroxy-N′,2-dimethylmalonamide] | – | – | – | – | – | – | – | – | – | – | – | – | – | LpxC inhibitory activity [8]: excellent |
